Tests used:
[1] = tested on: human cancer cell lines HeLa, SCOV3 or MDA-MB-231; assay: Delivery of the complex from loaded MSCs to cancer cells in co-culture, flow cytometry; type: cell-based; conditions: loaded MSCs co-cultured for 24 hours with cancer cells in ratio 2:1, example of results
Method: Cancer cell lines HeLa, SKOV3 and MDA-MB-231 were cultures in RPMI, 10%FBS, 1:100 penicillin/streptomycin, 1:100 L-glutamine. Media was changed every 2 days.
For co-culture with MSCs, cancer cells were detached from culture dish using 0,25% Trypsin-EDTA and resuspended in full RPMI media. UC-MSC cells were prepared as described in Example 1 and then mixed 2:1 (200 000:100 000) with cancer cell line and plated on 24-well plate. Co-culture media was a mixture 1:1 of media for MSC and cancer cells.
The results were analysed by flow cytometry. Before setting up the co-culture in every experiment cancer cells were stained with Cell Trace Violet (Thermo Fisher Scientific) in the 1:100 dilution. In experiments with fluorescent cargo (haemoglon-Alexa488 and ferritin-A488) UC-MSC and cancer cells were differentiated by Cell Trace Violet signal. In experiments with ferritin-doxorubicin all cells in co-culture were additionally stained with Draq7 (BioLegend) in order to track viability. Cells were differentiated by Cell Trace Violet.

[2] = tested on: Human umbilical Mesenchymal Stem Cells (MSC); assay: Loading of UC-MSC in suspension with fluorescently labelled iron-binding protein complexes, flow cytometry; type: cell-based; conditions: MSC at passage five loaded with 0.6 mg/ml
Method: Umbilical Cord Mesenchymal Stem cells (UC-MSC) were cultured in DMEM 1000, 1:100 penicillin/streptomycin, 20% FBS, 8 ng/ml bFGF. Media was changed every 2 days. Experiments were carried out on UC-MSCs at passage 5.
Ferritin and haemoglobin complexes were produced as described in WO 2016/207257 (see in particular Examples 5 and 6).
Human UC-MSCs were loaded in suspension with fluorescently labelled haemoglobin-Alexa488, ferritn-Alexa488 or ferritin loaded with anticancer drug doxorubicin (ferritin-doxorubicin) as follows: UC-MSCs were detached from culture dish with 0,25% Trypsin-EDTA then cells were mixed with 0,6 mg/ml of haemoglobin-Alexa488, ferritn-Alexa488 and ferritn-doxorubicin in PBS to final cell density 10^6 per ml. Next cells were incubated for 1 hour at 37 °C, 5% CO2 and washed once in PBS afterwards. Cells were immediately used to set up co-culture with cancer cells.

Haemoglobin-Alexa488: fluorescently labelled haemoglobin-Alexa488, produced as described in WO 2016/207257
cancer cells positive for Haemoglobin-Alexa488 ([1]; Fig. 2C): Approximately 96%
cancer cells positive for Haemoglobin-Alexa488 ([1]; Fig. 3C (Ft- / Ft+ panels)): Approximately 92%
efficacy of loading of MSC [2]: ≥ 97%
mean fluorescence intensity in loaded MSC cells versus control group ([2]; fold higher than control group): 4 times
